# Experimental data published in patent US20250296959A1, “B7-H3 TARGETING PEPTIDES AND CONSTRUCTS THEREOF” (Mariana Oncology Inc., priority 2024, published 2025).
# pKd: −log10 of the molar value. Positions of bridges follow the written chain, without caps; N, C: chain ends. Non-standard residues stand in square brackets, D forms with d. Residues, ends and D or L forms follow the SMILES beside them. *: point of attachment. DOTA = O=C(O)CN1CCN(CC(=O)O)CCN(CC(=O)*)CCN(CC(=O)O)CC1; Trp(5-F) = N[C@@H](Cc1c[nH]c2ccc(F)cc12)C(=O)O; 1Nal = N[C@@H](Cc1cccc2ccccc12)C(=O)O; Ala(4-THP) = N[C@@H](CC1CCOCC1)C(=O)O; cisHyp = O=C(O)[C@@H]1C[C@H](O)CN1; 4Pal = N[C@@H](Cc1ccncc1)C(=O)O; Tle = CC(C)(C)[C@H](N)C(=O)O; hLeu = CC(C)CC[C@H](N)C(=O)O; Pip = O=C(O)[C@@H]1CCCCN1; Nle = CCCC[C@H](N)C(=O)O; Orn = NCCC[C@H](N)C(=O)O
# Biological target: T1, human 4lg B7-H3 (Homo sapiens, UniProt Q5ZPR3)
# T1 sequence (Q5ZPR3 29-534): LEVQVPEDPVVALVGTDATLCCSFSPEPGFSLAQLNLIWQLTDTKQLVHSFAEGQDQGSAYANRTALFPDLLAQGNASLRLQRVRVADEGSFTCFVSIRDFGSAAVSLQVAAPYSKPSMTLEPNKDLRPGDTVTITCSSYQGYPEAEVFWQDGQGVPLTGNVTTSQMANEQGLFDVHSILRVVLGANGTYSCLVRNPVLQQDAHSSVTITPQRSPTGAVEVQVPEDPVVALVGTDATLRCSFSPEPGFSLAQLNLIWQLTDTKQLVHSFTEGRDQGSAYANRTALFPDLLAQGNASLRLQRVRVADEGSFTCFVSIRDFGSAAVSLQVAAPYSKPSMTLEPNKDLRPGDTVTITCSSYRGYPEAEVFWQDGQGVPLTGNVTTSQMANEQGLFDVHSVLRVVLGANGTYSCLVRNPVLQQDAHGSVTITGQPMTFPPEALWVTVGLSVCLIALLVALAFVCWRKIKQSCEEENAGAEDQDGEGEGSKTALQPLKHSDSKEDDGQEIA
# Experiment: Affinity determination by surface plasmon resonance (SPR) to 4Ig B7-H3
# Conditions: SPR KD—25° C., 4Ig B7-H3; 25° C. flow cell temperature
row,Structure (SMILES),pKd
1,"CSCC[C@H](NC(C)=O)C(=O)N[C@@H](Cc1ccc(O)cc1)C(=O)N[C@H]1CSSC[C@@H](C(=O)N[C@@H](Cc2c[nH]c3ccccc23)C(=O)N[C@@H](Cc2ccccc2)C(N)=O)NC(=O)[C@H](Cc2ccc(O)cc2)NC(=O)[C@H](C(C)C)NC(=O)[C@H](CC(=O)O)NC(=O)[C@H](Cc2ccc(O)cc2)NC(=O)[C@H](CCCCN)NC(=O)CNC(=O)[C@H](C(C)C)NC1=O [compound 1, Ac-M-Y-C-V-G-K-Y-D-V-Y-C-W-F-CONH2] (Ac-MYCVGKYDVYCWF-NH2; disulfide 3-11)",6.52 to 7.00
2,"CC(=O)N[C@@H](CCC(C)C)C(=O)N[C@@H](Cc1ccc(O)cc1)C(=O)N[C@H]1CSSC[C@@H](C(=O)N[C@@H](Cc2cccc3ccccc23)C(=O)N[C@@H](Cc2ccccc2)C(=O)N2C[C@@H](O)C[C@H]2C(N)=O)NC(=O)[C@H](Cc2ccc(O)cc2)NC(=O)[C@H](C(C)C)NC(=O)[C@H](CC(=O)O)NC(=O)[C@H](Cc2ccncc2)NC(=O)[C@H](CCCCNC(=O)CN2CCN(CC(=O)O)CCN(CC(=O)O)CCN(CC(=O)O)CC2)NC(=O)CNC(=O)[C@H](C(C)(C)C)NC1=O [compound 250, Ac-hLeu-Y-C-Tbg-G-Lys(DOTA)-4PyA-D-V-Y-C-1Nal-F-(cisHyp)-CONH2] (Ac-[hLeu]YC[Tle]GK(DOTA)[4Pal]DVYC[1Nal]F[cisHyp]-NH2; disulfide 3-11)",7.00 to 8.00

# Further lines, results first:
row,pKd,Structure (SMILES)
1,7.00 to 8.00,"CC(=O)N[C@@H](CCC(C)C)C(=O)N[C@@H](Cc1ccc(O)cc1)C(=O)N[C@H]1CSSC[C@@H](C(=O)N[C@@H](Cc2cccc3ccccc23)C(=O)N[C@@H](Cc2ccccc2)C(=O)N2CCCC[C@H]2C(=O)O)NC(=O)[C@H](Cc2ccc(O)cc2)NC(=O)[C@H](C(C)C)NC(=O)[C@H](CC(=O)O)NC(=O)[C@H](Cc2ccncc2)NC(=O)[C@H](CCCCNC(=O)CN2CCN(CC(=O)O)CCN(CC(=O)O)CCN(CC(=O)O)CC2)NC(=O)CNC(=O)[C@H](C(C)(C)C)NC1=O [compound 265, Ac-hLeu-Y-C-Tbg-G-Lys(DOTA)-4PyA-D-V-Y-C-1Nal-F-Pip acid-CONH2] (Ac-[hLeu]YC[Tle]GK(DOTA)[4Pal]DVYC[1Nal]F[Pip]-OH; disulfide 3-11)"
2,8.00 to 9.00,"CC(=O)N[C@@H](CCC(C)C)C(=O)N[C@@H](Cc1ccc(O)cc1)C(=O)N[C@H]1CSSC[C@@H](C(=O)N[C@@H](Cc2c[nH]c3ccc(F)cc23)C(=O)N[C@@H](Cc2ccccc2)C(=O)N2CCC[C@H]2C(=O)N[C@H](CCCCNC(=O)CN2CCN(CC(=O)O)CCN(CC(=O)O)CCN(CC(=O)O)CC2)C(=O)O)NC(=O)[C@H](Cc2ccc(O)cc2)NC(=O)[C@H](C(C)C)NC(=O)[C@H](CC(=O)O)NC(=O)[C@H](CC2CCOCC2)NC(=O)[C@H](CCCN)NC(=O)CNC(=O)[C@H](C(C)(C)C)NC1=O [compound 312, Ac-hLeu-Y-C-Tbg-G-Orn-ThpA-D-V-Y-C-5FW-F-Pro-dLys(DOTA)-COOH] (Ac-[hLeu]YC[Tle]G[Orn][Ala(4-THP)]DVYC[Trp(5-F)]FP[dK](DOTA)-OH; disulfide 3-11)"
3,8.00 to 9.00,"CCCC[C@H](NC(C)=O)C(=O)N[C@@H](Cc1ccc(O)cc1)C(=O)N[C@H]1CSSC[C@@H](C(=O)N[C@@H](Cc2c[nH]c3ccccc23)C(=O)N[C@@H](Cc2ccccc2)C(=O)N[C@H](C(=O)N[C@H](CCCCNC(=O)CN2CCN(CC(=O)O)CCN(CC(=O)O)CCN(CC(=O)O)CC2)C(N)=O)[C@@H](C)O)NC(=O)[C@H](Cc2ccc(O)cc2)NC(=O)[C@H](C(C)C)NC(=O)[C@H](CC(=O)O)NC(=O)[C@H](Cc2ccc(O)cc2)NC(=O)[C@H](CCCNC(=N)N)NC(=O)CNC(=O)[C@H](C(C)C)NC1=O [compound 85, Ac-Nle-Y-C-V-G-Arg-Y-D-V-Y-C-W-F-Thr-dLys(DOTA)-CONH2] (Ac-[Nle]YCVGRYDVYCWFT[dK](DOTA)-NH2; disulfide 3-11)"

# Same assay, conditions: SPR KD—37° C., 4Ig B7-H3; 37° C. flow cell temperature
row,pKd,Structure (SMILES)
1,6.52 to 7.00,"CSCC[C@H](NC(C)=O)C(=O)N[C@@H](Cc1ccc(O)cc1)C(=O)N[C@H]1CSSC[C@@H](C(=O)N[C@@H](Cc2c[nH]c3ccccc23)C(=O)N[C@@H](Cc2ccccc2)C(N)=O)NC(=O)[C@H](Cc2ccc(O)cc2)NC(=O)[C@H](C(C)C)NC(=O)[C@H](CC(=O)O)NC(=O)[C@H](Cc2ccc(O)cc2)NC(=O)[C@H](CCCCN)NC(=O)CNC(=O)[C@H](C(C)C)NC1=O [compound 1, Ac-M-Y-C-V-G-K-Y-D-V-Y-C-W-F-CONH2] (Ac-MYCVGKYDVYCWF-NH2; disulfide 3-11)"
